Data published in PMC12655551, “Design, Synthesis, and Evaluation of Pyrrole-Based Selective MAO-B Inhibitors with Additional AChE Inhibitory and Neuroprotective Properties Identified via Virtual Screening” (Pharmaceuticals, 2025).
Like-named read-outs stand apart in the source and are kept apart here.

Columns and labels:
AChE = molecular target: T1, AChE (Electrophorus electricus, UniProt O42275); assay: biochemical; format: biochemical; conditions: for inhibition at 200 µM: 200 µM compound; for IC50: means ± SD of three experiments
T1 construct: purchased Sigma-Aldrich, Hamburg, Germany
T1 sequence (O42275 24-633): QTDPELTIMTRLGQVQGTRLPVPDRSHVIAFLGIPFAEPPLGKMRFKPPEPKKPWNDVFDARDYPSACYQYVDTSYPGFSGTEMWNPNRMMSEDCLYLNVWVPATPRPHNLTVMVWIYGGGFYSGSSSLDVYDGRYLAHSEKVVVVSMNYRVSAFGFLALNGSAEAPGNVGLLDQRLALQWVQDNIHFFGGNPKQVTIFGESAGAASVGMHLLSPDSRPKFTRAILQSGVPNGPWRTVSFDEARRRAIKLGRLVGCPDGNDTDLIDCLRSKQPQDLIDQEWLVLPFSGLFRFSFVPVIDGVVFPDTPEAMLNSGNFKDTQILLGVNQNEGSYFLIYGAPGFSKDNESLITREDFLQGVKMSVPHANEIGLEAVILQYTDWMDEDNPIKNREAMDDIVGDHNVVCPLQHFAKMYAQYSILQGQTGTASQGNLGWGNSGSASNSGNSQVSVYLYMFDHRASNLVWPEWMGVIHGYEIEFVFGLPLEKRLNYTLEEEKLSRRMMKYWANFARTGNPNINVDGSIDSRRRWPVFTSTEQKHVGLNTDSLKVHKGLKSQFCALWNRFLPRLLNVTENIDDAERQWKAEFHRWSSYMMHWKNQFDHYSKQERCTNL
Procedure: (§1) AChE and BChE inhibitory activity of the newly synthesized pyrrole-based compounds was measured using the microplate assay described by Ellman et al. with the modifications added by López et al.. The compounds were tested at concentrations between 0.01 and 200 μM. First, they were dissolved in phosphate buffer (PBS) (8 mM K2HPO4, 2.3 mM NaH2PO4, 0.15 M NaCl, pH 7.5), assisted by the addition of no more than 5% MeOH. Then, they were serially diluted with PBS to provide the concentration range needed. Acetylcholinesterase from Electrophorus electricus and butyrylcholinesterase from equine serum (Sigma-Aldrich, Hamburg, Germany) were used with a substrate solution of 5,5′-dithiobis(2-nitrobenzoic acid) (DTNB) with acetylthiocholine iodide (ATCI) or butyrylthiocholine iodide (BTCI), respectively (0.04 M Na2HPO4, 0.2 mM DTNB, 0.24 mM ATCI or BTCI, pH 7.5). A total of 50 μL of AChE or BChE (0.25 U/mL, in PBS) and 50 μL of the tested compound solution were added to the wells. Incubation of the plates was performed at room temperature for 30 min. Then, 100 μL of substrate solution was added to start the enzymatic reaction. […] Enzyme activity was calculated as an inhibition percentage compared to an assay including buffer instead of an inhibitor.

BChE = molecular target: T2, BChE (Equus caballus, UniProt P81908); assay: biochemical; conditions: for inhibition at 200 µM: read-out: Inhibition Activity 200 µM BChE
T2 construct: purchased Sigma-Aldrich, Hamburg, Germany; host or cells: equine serum
T2 sequence (P81908 whole entry): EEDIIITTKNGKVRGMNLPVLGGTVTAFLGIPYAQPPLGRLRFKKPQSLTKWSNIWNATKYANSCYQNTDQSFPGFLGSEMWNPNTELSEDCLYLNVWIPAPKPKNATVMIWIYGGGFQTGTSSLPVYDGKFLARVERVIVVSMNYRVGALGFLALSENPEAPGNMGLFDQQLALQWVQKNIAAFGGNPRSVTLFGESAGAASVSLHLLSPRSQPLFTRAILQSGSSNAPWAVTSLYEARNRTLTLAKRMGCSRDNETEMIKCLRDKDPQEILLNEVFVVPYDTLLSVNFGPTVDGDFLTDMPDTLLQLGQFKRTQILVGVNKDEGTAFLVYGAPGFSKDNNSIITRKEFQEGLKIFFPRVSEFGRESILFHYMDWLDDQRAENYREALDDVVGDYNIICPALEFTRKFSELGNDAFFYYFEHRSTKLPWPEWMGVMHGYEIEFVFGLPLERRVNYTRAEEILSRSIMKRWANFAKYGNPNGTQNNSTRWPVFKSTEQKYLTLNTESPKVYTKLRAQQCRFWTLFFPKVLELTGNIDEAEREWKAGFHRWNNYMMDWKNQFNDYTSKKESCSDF
Procedure: as §1

[1] = test system: isolated rat brain synaptosomes; assay: Neurotoxicity of compounds alone on isolated rat brain synaptosomes (MTT viability, GSH); format: cell-based; conditions: compound alone, 100 μM, vs non-treated synaptosomes
Procedure: (§2) Two types of buffers were used for the isolation of the rat brain synaptosomes and mitochondria. Buffer A was 5 mM HEPES and 0.32 M Sucrose; Buffer B was 290 mM NaCl, 0.95 mM MgCl2 × 2H2O, 10 mM KCl, 2.4 mM CaCl2 × 2H2O, 2.1 mM NaH2PO4, 44 mM HEPES, 13 mM D-Glucose. For the gradient centrifugation, Percoll reagent was used. A stock solution of 90% Percoll was used to prepare 16%, 10% and 7.5% solutions. All the solutions were used as described below. Immediately after harvesting, synaptosomes, microsomes, and mitochondria were incubated with the exam compounds for 1 h. For assessing the possible neurotoxicity of the most MAOB active compounds, the sub-cellular fractions were incubated with 100 µM of them, and for evaluating their possible neuroprotective and antioxidant activities in different models of neurotoxicity, the sub-cellular fractions were incubated with 50µM of them. The protein measurement of all the sub-cellular fractions was made by the method of Lowry et al., 1951 [57].
The synaptosomes were prepared from rat brains by multiple sub-cellular fractionation using a Percoll gradient.
After the incubation, the synaptosomes were centrifuged three times at 15,000× g for 1 min. MTT-test was performed to determine synaptosomal vitality by the method described by Mungarro-Menchaca et al..
The level of GSH was determined by measuring the non-protein SH-groups after precipitation of the proteins with trichloroacetic acid (TCA). The presence of thiols in the supernatant was determined using Elmman’s reagent. The resulting yellow color was measured spectrophotometrically (λ = 412 nm).

[2] = test system: isolated rat brain mitochondria; assay: Toxicity of compounds alone on isolated rat brain mitochondria (MDA, GSH); format: cell-based; conditions: compound alone, 100 μM, vs non-treated mitochondria
Procedure: as §2
(§3) The mitochondria were prepared by multiple differential fractionation using a Percoll gradient.
(§4) After incubation of the mitochondria, 0.3 mL 0.2% TBA and 0.25 mL sulfuric acid (0.05 M) were added to stop the reaction. The tubes were maintained at 100 °C for 30 min. In the next stage, centrifugation of the tubes was carried out at 3500× g for 10 min. Assessment of the total quantity of MDA formed in each sample was measured in the supernatant at 532 nm.
(§5) After incubation of mitochondria, 0.04% DTNB was mixed with the mitochondrial suspensions in 0.1 M phosphate buffer (pH 7.4). The absorbance of the yellow product was measured at 412 nm.

[3] = test system: isolated rat brain mitochondria; assay: t-BuOOH-induced oxidative stress in isolated rat brain mitochondria; format: cell-based; conditions: compound 50 µM with t-BuOOH 75 μM
Procedure: as §2, §3
The mitochondria were incubated with 75 μM t-BuOOH [57].
as §4, §5

[4] = test system: isolated rat brain microsomes; assay: FeSO4/ascorbic acid-induced lipid peroxidation in isolated rat brain microsomes; format: cell-based; conditions: compound 50 μM with Fe/AA
Procedure: as §2
The brain was homogenized in 9 vol. of 0.1 M Tris buffer containing 0.1 mM Dithiothreitol, 0.1 mM Phenylmethylsulfonyl fluoride, 0.2 mM EDTA, 1.15% KCl, and 20% (v/v) glycerol at pH 7.4. The homogenate was centrifuged twice at 17,000× g for 30 min. […]
The quantity of the lipid peroxidation product MDA was assessed using the method described by Deby and Goutier.

## Cc1ccc(C)n1C(Cc1cnc[nH]1)C(=O)O (centres unmarked) [EM-DC-19, 2-(2,5-dimethyl-1H-pyrrol-1-yl)-3-(2H-imidazol-4-yl)propanoic acid]
AChE
  inhibition at 200 µM: 73.98 ± 0.59%
  IC50: 76.2 ± 6.12 µM
AChE; ratio of AChE potencies
  fold lower AChE inhibition potency compared to EM-DC-2: approximately 100 fold
BChE; BChE IC50, means ± SD of three experiments
  IC50: > 200 µM
BChE
  inhibition at 200 µM: 18.03 ± 0.17%
[1]
  decrease of GSH level compared to the control: 30%
  decrease of synaptosomal viability compared to the control: 25%
[2]
  decrease of GSH level compared to the control: 25%
  increase of MDA production compared to the control: 50%
[3]
  decrease of MDA production compared to the toxic agent: 52%
  preservation of GSH level compared to toxic t-BuOOH: 30%
[4]
  decrease of MDA production compared to the toxic agent: 60%

## Cc1ccc(C)n1-c1ccc(CC(=O)O)cc1 [EM-DC-27, [4-(2,5-dimethyl-1H-pyrrol-1-yl)phenyl]acetic acid]
AChE
  inhibition at 200 µM: 26.5 ± 2.36%
  IC50: > 200 µM
BChE; means ± SD of three experiments, read-out: BChE IC50
  IC50: > 200 µM
BChE
  inhibition at 200 µM: 0%
[1]
  decrease of GSH level compared to the control: 30%
  decrease of synaptosomal viability compared to the control: 25%
[2]
  decrease of GSH level compared to the control: 25%
  increase of MDA production compared to the control: 70%
[3]
  decrease of MDA production compared to the toxic agent: 48%
  preservation of GSH level compared to toxic t-BuOOH: 30%
[4]
  decrease of MDA production compared to the toxic agent: 56%
